Legend:
[1] = tested on: Puccinia recondita f. Sp. Tritici; assay: Fungicidal activity, wheat leaf disc preventative (brown rust); assay type: in vivo; settings: foliar, 200 ppm in the applied formulation, wheat leaf segments cv. Kanzler, compared to untreated control, 7 to 9 days after application, read-out: disease control
Method in brief: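 Wheat cv. Kanzler leaf segments on agar were sprayed with formulated compound in water, then inoculated with spores 1 day later. Incubated at 19° C, 75% rh, 12 h light/12 h dark; percent disease control versus untreated scored 7 to 9 days after application.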

[2] = tested on: Puccinia recondita f. Sp. Tritici; assay: Fungicidal activity, wheat leaf disc curative (brown rust); assay type: in vivo; settings: foliar, 200 ppm in the applied formulation, wheat leaf segments cv. Kanzler, curative (applied 1 day after inoculation), compared to untreated control, 6 to 8 days after application, read-out: disease control
Method in brief: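 Spray application came one day after spore inoculation of Kanzler wheat leaf segments kept on agar. Conditions: 19° C, 75% relative humidity, dark before treatment and 12 h light/12 h dark after. Efficacy = % disease control compared with untreated, 6–8 days post-application.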

Phakopsora pachyrhizi = assay: Fungicidal activity, soybean leaf disc preventative (Asian soybean rust); assay type: in vivo; settings: foliar, 200 ppm in the applied formulation, soybean leaf disks, compared to untreated control, 12 to 14 days after application, read-out: disease control
Method in brief: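 Read-out is percent disease control relative to untreated check discs, assessed once untreated discs show adequate disease, 12 to 14 days after application. Compounds, tested at 200 ppm in the applied formulation, are sprayed onto soybean leaf discs one day before inoculation with a spore suspension.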

[3] = tested on: Glomerella lacenarium (Colletotrichum lacenarium); assay: Fungicidal activity, liquid culture, cucumber preventative (anthracnose); assay type: cell-based; settings: 20 ppm in the applied formulation, liquid culture in PDB, inhibition of growth measured photometrically 3 to 4 days after application, compared to untreated control, read-out: disease control
Method in brief: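 In liquid culture, cryo-stored conidia in potato dextrose broth were exposed to compound delivered from DMSO solution. Growth inhibition was measured photometrically after 3 to 4 days at 24° C.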

CON(Cc1ccc(-c2noc(C(F)(F)F)n2)s1)C(=O)C1(C)CC1 [Compound 1.15, N-methoxy-1-methyl-N-[[5-[5-(trifluoromethyl)-1,2,4-oxadiazol-3-yl]-2-thienyl]methyl]cyclopropanecarboxamide]
≥ 80%: pest or weed control at 200 ppm [1] | pest or weed control at 200 ppm [2] | pest or weed control at 200 ppm (Phakopsora pachyrhizi) | inhibition of growth at 20 ppm [3]

CCN(CC)C(=O)N(Cc1ccc(-c2noc(C(F)(F)F)n2)s1)OC [Compound 1.54, 1,1-diethyl-3-methoxy-3-[[5-[5-(trifluoromethyl)-1,2,4-oxadiazol-3-yl]-2-thienyl]methyl]urea]
≥ 80%: pest or weed control at 200 ppm [1] | pest or weed control at 200 ppm [2] | pest or weed control at 200 ppm (Phakopsora pachyrhizi) | inhibition of growth at 20 ppm [3]

C=CCN(C)C(=O)N(Cc1ccc(-c2noc(C(F)(F)F)n2)s1)C1CC1 [Compound 4.88, 1-allyl-3-cyclopropyl-1-methyl-3-[[5-[5-(trifluoromethyl)-1,2,4-oxadiazol-3-yl]-2-thienyl]methyl]urea]
≥ 80%: pest or weed control at 200 ppm [1] | pest or weed control at 200 ppm [2] | pest or weed control at 200 ppm (Phakopsora pachyrhizi) | inhibition of growth at 20 ppm [3]

CON(Cc1ccc(-c2noc(C(F)(F)F)n2)s1)C(=O)C(N)=O [Compound 1.24, N′-methoxy-N′-[[5-[5-(trifluoromethyl)-1,2,4-oxadiazol-3-yl]-2-thienyl]methyl]oxamide]
≥ 80%: pest or weed control at 200 ppm [1] | pest or weed control at 200 ppm [2] | pest or weed control at 200 ppm (Phakopsora pachyrhizi) | inhibition of growth at 20 ppm [3]

O=C(NC1CC1)N(Cc1ccc(-c2noc(C(F)(F)F)n2)s1)OCC(F)F [Compound 5.65, 3-cyclopropyl-1-(2,2-difluoroethoxy)-1-[[5-[5-(trifluoromethyl)-1,2,4-oxadiazol-3-yl]-2-thienyl]methyl]urea]
≥ 80%: pest or weed control at 200 ppm [1] | pest or weed control at 200 ppm [2] | pest or weed control at 200 ppm (Phakopsora pachyrhizi) | inhibition of growth at 20 ppm [3]

CON(Cc1ccc(-c2noc(C(F)(F)F)n2)s1)C(=O)C1CC1(F)F (centres unmarked) [Compound 1.8, 2,2-difluoro-N-methoxy-N-[[5-[5-(trifluoromethyl)-1,2,4-oxadiazol-3-yl]-2-thienyl]methyl]cyclopropanecarboxamide]
≥ 80%: pest or weed control at 200 ppm [1] | pest or weed control at 200 ppm [2] | pest or weed control at 200 ppm (Phakopsora pachyrhizi) | inhibition of growth at 20 ppm [3]

COCCCC(=O)NCc1ccc(-c2noc(C(F)(F)F)n2)s1 [Compound 2.10, 4-methoxy-N-[[5-[5-(trifluoromethyl)-1,2,4-oxadiazol-3-yl]-2-thienyl]methyl]butanamide]
≥ 80%: pest or weed control at 200 ppm [1] | pest or weed control at 200 ppm [2] | pest or weed control at 200 ppm (Phakopsora pachyrhizi) | inhibition of growth at 20 ppm [3]

CN(CC#N)C(=O)N(C)Cc1ccc(-c2noc(C(F)(F)F)n2)s1 [Compound 4.76, 1-(cyanomethyl)-1,3-dimethyl-3-[[5-[5-(trifluoromethyl)-1,2,4-oxadiazol-3-yl]-2-thienyl]methyl]urea]
≥ 80%: pest or weed control at 200 ppm [1] | pest or weed control at 200 ppm [2] | pest or weed control at 200 ppm (Phakopsora pachyrhizi) | inhibition of growth at 20 ppm [3]

CON(Cc1ccc(-c2noc(C(F)(F)F)n2)s1)C(=O)C1CC1 [Compound 1.4, N-methoxy-N-[[5-[5-(trifluoromethyl)-1,2,4-oxadiazol-3-yl]-2-thienyl]methyl]cyclopropanecarboxamide]
≥ 80%: pest or weed control at 200 ppm [1] | pest or weed control at 200 ppm [2] | pest or weed control at 200 ppm (Phakopsora pachyrhizi) | inhibition of growth at 20 ppm [3]

COCCNC(=O)N(C)Cc1ccc(-c2noc(C(F)(F)F)n2)s1 [Compound 4.78, 3-(2-methoxyethyl)-1-methyl-1-[[5-[5-(trifluoromethyl)-1,2,4-oxadiazol-3-yl]-2-thienyl]methyl]urea]
≥ 80%: pest or weed control at 200 ppm [1] | pest or weed control at 200 ppm [2] | pest or weed control at 200 ppm (Phakopsora pachyrhizi) | inhibition of growth at 20 ppm [3]

CC1(C(=O)NCc2ccc(-c3noc(C(F)(F)F)n3)s2)CC1 [Compound 3.6, 1-methyl-N-[[5-[5-(trifluoromethyl)-1,2,4-oxadiazol-3-yl]-2-thienyl]methyl]cyclopropanecarboxamide]
≥ 80%: pest or weed control at 200 ppm [1] | pest or weed control at 200 ppm [2] | pest or weed control at 200 ppm (Phakopsora pachyrhizi) | inhibition of growth at 20 ppm [3]

CN(Cc1ccc(-c2noc(C(F)(F)F)n2)s1)C(=O)C1CC1 [Compound 5.1, N-methyl-N-[[5-[5-(trifluoromethyl)-1,2,4-oxadiazol-3-yl]-2-thienyl]methyl]cyclopropanecarboxamide]
≥ 80%: pest or weed control at 200 ppm [1] | pest or weed control at 200 ppm [2] | pest or weed control at 200 ppm (Phakopsora pachyrhizi) | inhibition of growth at 20 ppm [3]

CCN(Cc1ccc(-c2noc(C(F)(F)F)n2)s1)S(C)(=O)=O [Compound 6.16, N-ethyl-N-[[5-[5-(trifluoromethyl)-1,2,4-oxadiazol-3-yl]-2-thienyl]methyl]methanesulfonamide]
≥ 80%: pest or weed control at 200 ppm [1] | pest or weed control at 200 ppm [2] | pest or weed control at 200 ppm (Phakopsora pachyrhizi) | inhibition of growth at 20 ppm [3]

CCN(Cc1ccc(-c2noc(C(F)(F)F)n2)s1)C(=O)C1CC1C (centres unmarked) [Compound 5.16, N-ethyl-2-methyl-N-[[5-[5-(trifluoromethyl)-1,2,4-oxadiazol-3-yl]-2-thienyl]methyl]cyclopropanecarboxamide]
≥ 80%: pest or weed control at 200 ppm [1] | pest or weed control at 200 ppm [2] | pest or weed control at 200 ppm (Phakopsora pachyrhizi) | inhibition of growth at 20 ppm [3]

O=C(CC(F)(F)F)NCc1ccc(-c2noc(C(F)(F)F)n2)s1 [Compound 2.12, 3,3,3-trifluoro-N-[[5-[5-(trifluoromethyl)-1,2,4-oxadiazol-3-yl]-2-thienyl]methyl]propanamide]
≥ 80%: pest or weed control at 200 ppm [1] | pest or weed control at 200 ppm [2] | pest or weed control at 200 ppm (Phakopsora pachyrhizi) | inhibition of growth at 20 ppm [3]

O=C(CC1CC1)NCc1ccc(-c2noc(C(F)(F)F)n2)s1 [Compound 3.10, 2-cyclopropyl-N-[[5-[5-(trifluoromethyl)-1,2,4-oxadiazol-3-yl]-2-thienyl]methyl]acetamide]
≥ 80%: pest or weed control at 200 ppm [1] | pest or weed control at 200 ppm [2] | pest or weed control at 200 ppm (Phakopsora pachyrhizi) | inhibition of growth at 20 ppm [3]

CCC(=O)N(Cc1ccc(-c2noc(C(F)(F)F)n2)s1)C1CC1 [Compound 4.56, N-cyclopropyl-N-[[5-[5-(trifluoromethyl)-1,2,4-oxadiazol-3-yl]-2-thienyl]methyl]propanamide]
≥ 80%: pest or weed control at 200 ppm [1] | pest or weed control at 200 ppm [2] | pest or weed control at 200 ppm (Phakopsora pachyrhizi) | inhibition of growth at 20 ppm [3]

CCN(Cc1ccc(-c2noc(C(F)(F)F)n2)s1)C(=O)CCOC [Compound 4.25, N-ethyl-3-methoxy-N-[[5-[5-(trifluoromethyl)-1,2,4-oxadiazol-3-yl]-2-thienyl]methyl]propanamide]
≥ 80%: pest or weed control at 200 ppm [1] | pest or weed control at 200 ppm [2] | pest or weed control at 200 ppm (Phakopsora pachyrhizi) | inhibition of growth at 20 ppm [3]

CON(C(=O)C1CC1)C(C)c1ccc(-c2noc(C(F)(F)F)n2)s1 (centres unmarked) [Compound 1.48, N-methoxy-N-[1-[5-[5-(trifluoromethyl)-1,2,4-oxadiazol-3-yl]-2-thienyl]ethyl]cyclopropanecarboxamide]
≥ 80%: pest or weed control at 200 ppm [1] | pest or weed control at 200 ppm [2] | pest or weed control at 200 ppm (Phakopsora pachyrhizi) | inhibition of growth at 20 ppm [3]

COCCC(=O)N(Cc1ccc(-c2noc(C(F)(F)F)n2)s1)OCC(F)F [Compound 4.64, N-(2,2-difluoroethoxy)-3-methoxy-N-[[5-[5-(trifluoromethyl)-1,2,4-oxadiazol-3-yl]-2-thienyl]methyl]propanamide]
≥ 80%: pest or weed control at 200 ppm [1] | pest or weed control at 200 ppm [2] | pest or weed control at 200 ppm (Phakopsora pachyrhizi) | inhibition of growth at 20 ppm [3]

CNC(=O)N(Cc1ccc(-c2noc(C(F)(F)F)n2)s1)OCC(F)F [Compound 4.19, 1-(2,2-difluoroethoxy)-3-methyl-1-[[5-[5-(trifluoromethyl)-1,2,4-oxadiazol-3-yl]-2-thienyl]methyl]urea]
≥ 80%: pest or weed control at 200 ppm [1] | pest or weed control at 200 ppm [2] | pest or weed control at 200 ppm (Phakopsora pachyrhizi) | inhibition of growth at 20 ppm [3]

CON(Cc1ccc(-c2noc(C(F)(F)F)n2)s1)C(=O)C1CCOC1 (centres unmarked) [Compound 1.10, N-methoxy-N-[[5-[5-(trifluoromethyl)-1,2,4-oxadiazol-3-yl]-2-thienyl]methyl]tetrahydrofuran-3-carboxamide]
≥ 80%: pest or weed control at 200 ppm [1] | pest or weed control at 200 ppm [2] | pest or weed control at 200 ppm (Phakopsora pachyrhizi) | inhibition of growth at 20 ppm [3]

C#CCNC(=O)N(Cc1ccc(-c2noc(C(F)(F)F)n2)s1)C1CC1 [Compound 4.92, 1-cyclopropyl-3-prop-2-ynyl-1-[[5-[5-(trifluoromethyl)-1,2,4-oxadiazol-3-yl]-2-thienyl]methyl]urea]
≥ 80%: pest or weed control at 200 ppm [1] | pest or weed control at 200 ppm [2] | pest or weed control at 200 ppm (Phakopsora pachyrhizi) | inhibition of growth at 20 ppm [3]

— patent US20200187502A1, “MICROBIOCIDAL OXADIAZOLE DERIVATIVES” (SYNGENTA PARTICIPATIONS AG, priority 2017, published 2020)
